In ChEMBL document CHEMBL4359841, “Late-Stage Functionalization of Platensimycin Leading to Multiple Analogues with Improved Antibacterial Activity in Vitro and in Vivo” (2019):
The source made the active and inactive calls.

Experiments:
[1] = test system: Staphylococcus aureus; test: Inhibition of FabB/FabF in methicillin-resistant Staphylococcus aureus 3095 clinical isolate assessed as antibacterial activity after 16 hrs by agar dilution method
[2] = test system: Staphylococcus aureus; test: Inhibition of FabB/FabF in methicillin-resistant Staphylococcus aureus 3158 clinical isolate assessed as antibacterial activity after 16 hrs by agar dilution method
[3] = test system: Staphylococcus aureus; test: Inhibition of FabB/FabF in methicillin-resistant Staphylococcus aureus 3193 clinical isolate assessed as antibacterial activity after 16 hrs by agar dilution method
[4] = test system: Staphylococcus aureus; test: Inhibition of FabB/FabF in methicillin-resistant Staphylococcus aureus 3104 clinical isolate assessed as antibacterial activity after 16 hrs by agar dilution method
[5] = test system: Staphylococcus aureus; test: Inhibition of FabB/FabF in methicillin-resistant Staphylococcus aureus 3181 clinical isolate assessed as antibacterial activity after 16 hrs by agar dilution method
[6] = test system: Staphylococcus aureus; test: Inhibition of FabB/FabF in Staphylococcus aureus ATCC 29213 assessed as antibacterial activity after 16 hrs by agar dilution method
[7] = test system: Staphylococcus aureus; test: Inhibition of FabB/FabF in methicillin-sensitive Staphylococcus aureus 2955 clinical isolate assessed as antibacterial activity after 16 hrs by agar dilution method
[8] = test system: Staphylococcus aureus; test: Inhibition of FabB/FabF in methicillin-resistant Staphylococcus aureus 3103 clinical isolate assessed as antibacterial activity after 16 hrs by agar dilution method
[9] = test system: Staphylococcus aureus; test: Inhibition of FabB/FabF in methicillin-resistant Staphylococcus aureus 2985 clinical isolate assessed as antibacterial activity after 16 hrs by agar dilution method
[10] = test system: Staphylococcus aureus; test: Inhibition of FabB/FabF in methicillin-resistant Staphylococcus aureus 2957 clinical isolate assessed as antibacterial activity after 16 hrs by agar dilution method
[11] = test system: Staphylococcus aureus; test: Inhibition of FabB/FabF in methicillin-resistant Staphylococcus aureus 3079 clinical isolate assessed as antibacterial activity after 16 hrs by agar dilution method
[12] = test system: Staphylococcus aureus; test: Inhibition of FabB/FabF in methicillin-sensitive Staphylococcus aureus 2954 clinical isolate assessed as antibacterial activity after 16 hrs by agar dilution method
[13] = test system: Staphylococcus aureus; test: Inhibition of FabB/FabF in methicillin-sensitive Staphylococcus aureus assessed as antibacterial activity after 16 hrs by agar dilution method
[14] = test system: Staphylococcus aureus; test: Inhibition of FabB/FabF in methicillin-resistant Staphylococcus aureus 2953 clinical isolate assessed as antibacterial activity after 16 hrs by agar dilution method
[15] = test system: Staphylococcus aureus; test: Inhibition of FabB/FabF in methicillin-resistant Staphylococcus aureus assessed as antibacterial activity after 16 hrs by agar dilution method
[16] = test system: Staphylococcus aureus; test: Inhibition of FabB/FabF in methicillin-resistant Staphylococcus aureus 2980 clinical isolate assessed as antibacterial activity after 16 hrs by agar dilution method
[17] = test system: Staphylococcus aureus; test: Inhibition of FabB/FabF in methicillin-resistant Staphylococcus aureus 3196 clinical isolate assessed as antibacterial activity after 16 hrs by agar dilution method
[18] = test system: Staphylococcus aureus; test: Inhibition of FabB/FabF in methicillin-resistant Staphylococcus aureus assessed as antibacterial activity at 5 ug/disk after 18 hrs by agar disk diffusion method
[19] = test system: Staphylococcus aureus; test: Inhibition of FabB/FabF in methicillin-resistant Staphylococcus aureus 3161 clinical isolate assessed as antibacterial activity after 16 hrs by agar dilution method
[20] = test system: Staphylococcus aureus; test: Inhibition of FabB/FabF in methicillin-resistant Staphylococcus aureus 3065 clinical isolate assessed as antibacterial activity after 16 hrs by agar dilution method
[21] = test system: Staphylococcus aureus; test: Inhibition of FabB/FabF in methicillin-resistant Staphylococcus aureus 3156 clinical isolate assessed as antibacterial activity after 16 hrs by agar dilution method
[22] = test system: Staphylococcus aureus; test: Inhibition of FabB/FabF in methicillin-resistant Staphylococcus aureus 3116 clinical isolate assessed as antibacterial activity after 16 hrs by agar dilution method
[23] = test system: Staphylococcus aureus; test: Inhibition of FabB/FabF in methicillin-resistant Staphylococcus aureus 3108 clinical isolate assessed as antibacterial activity after 16 hrs by agar dilution method
[24] = test system: Staphylococcus aureus; test: Inhibition of FabB/FabF in methicillin-resistant Staphylococcus aureus 2978 clinical isolate assessed as antibacterial activity after 16 hrs by agar dilution method
[25] = test system: Staphylococcus aureus; test: Inhibition of FabB/FabF in methicillin-resistant Staphylococcus aureus 3074 clinical isolate assessed as antibacterial activity after 16 hrs by agar dilution method
[26] = test system: Staphylococcus aureus; test: Inhibition of FabB/FabF in methicillin-resistant Staphylococcus aureus 3114 clinical isolate assessed as antibacterial activity after 16 hrs by agar dilution method
[27] = test system: Staphylococcus aureus; test: Inhibition of FabB/FabF in methicillin-resistant Staphylococcus aureus 2976 clinical isolate assessed as antibacterial activity after 16 hrs by agar dilution method
[28] = test system: Staphylococcus aureus; test: Inhibition of FabB/FabF in methicillin-resistant Staphylococcus aureus 2984 clinical isolate assessed as antibacterial activity after 16 hrs by agar dilution method
[29] = test system: Staphylococcus aureus; test: Inhibition of FabB/FabF in methicillin-sensitive Staphylococcus aureus 2956 clinical isolate assessed as antibacterial activity after 16 hrs by agar dilution method
[30] = test system: Staphylococcus aureus; test: Inhibition of FabB/FabF in methicillin-resistant Staphylococcus aureus 2951 clinical isolate assessed as antibacterial activity after 16 hrs by agar dilution method
[31] = test system: Staphylococcus aureus; test: Inhibition of FabB/FabF in methicillin-resistant Staphylococcus aureus 3188 clinical isolate assessed as antibacterial activity after 16 hrs by agar dilution method
[32] = test system: Staphylococcus aureus; test: Inhibition of FabB/FabF in methicillin-resistant Staphylococcus aureus 3093 clinical isolate assessed as antibacterial activity after 16 hrs by agar dilution method
[33] = test system: Staphylococcus aureus; test: Inhibition of FabB/FabF in methicillin-resistant Staphylococcus aureus 3112 clinical isolate assessed as antibacterial activity after 16 hrs by agar dilution method
[34] = test system: Staphylococcus aureus; test: Inhibition of FabB/FabF in methicillin-resistant Staphylococcus aureus 3163 clinical isolate assessed as antibacterial activity after 16 hrs by agar dilution method
[35] = test system: Staphylococcus aureus; test: Inhibition of FabB/FabF in methicillin-resistant Staphylococcus aureus 3150 clinical isolate assessed as antibacterial activity after 16 hrs by agar dilution method
[36] = test system: Staphylococcus aureus; test: Inhibition of FabB/FabF in methicillin-resistant Staphylococcus aureus 3086 clinical isolate assessed as antibacterial activity after 16 hrs by agar dilution method
[37] = test system: Staphylococcus aureus; test: Inhibition of FabB/FabF in methicillin-sensitive Staphylococcus aureus 2952 clinical isolate assessed as antibacterial activity after 16 hrs by agar dilution method
[38] = test system: Staphylococcus aureus; test: Inhibition of FabB/FabF in methicillin-resistant Staphylococcus aureus 3071 clinical isolate assessed as antibacterial activity after 16 hrs by agar dilution method
[39] = test system: Staphylococcus aureus; test: Inhibition of FabB/FabF in methicillin-resistant Staphylococcus aureus 3090 clinical isolate assessed as antibacterial activity after 16 hrs by agar dilution method
[40] = test system: Staphylococcus aureus; test: Inhibition of FabB/FabF in methicillin-resistant Staphylococcus aureus 3100 clinical isolate assessed as antibacterial activity after 16 hrs by agar dilution method
[41] = test system: Staphylococcus aureus; test: Inhibition of FabB/FabF in methicillin-resistant Staphylococcus aureus 2962 clinical isolate assessed as antibacterial activity after 16 hrs by agar dilution method

C[C@]12C[C@@]34C=CC(=O)[C@@](C)(CCC(=O)Nc5c(O)ccc(C(=O)O)c5O)[C@@H]3[C@H](C[C@@H]1C4)O2
active: antibacterial activity (disk diffusion, qualitative) [18]
0.5 mg/L: MIC [13] | MIC [15]
1 mg/L: MIC [1] | MIC [2] | MIC [3] | MIC [4] | MIC [5] | MIC [6] | MIC [7] | MIC [8] | MIC [9] | MIC [10] | MIC [11] | MIC [12] | MIC [14] | MIC [16] | MIC [17] | MIC [19] | MIC [20] | MIC [21] | MIC [22] | MIC [23] | MIC [24] | MIC [25] | MIC [26] | MIC [27] | MIC [28] | MIC [29] | MIC [30] | MIC [31] | MIC [32] | MIC [33] | MIC [34] | MIC [35] | MIC [36] | MIC [37] | MIC [38] | MIC [39] | MIC [40] | MIC [41]

C[C@]12C[C@@]34C=C(SC5CCCCC5)C(=O)[C@@](C)(CCC(=O)Nc5c(O)ccc(C(=O)O)c5O)[C@@H]3[C@H](C[C@@H]1C4)O2
0.5 mg/L: MIC [6]
0.25 mg/L: MIC [13] | MIC [15]
active: inhibition [1] | inhibition [2] | inhibition [3] | inhibition [4] | inhibition [5] | inhibition [7] | inhibition [8] | inhibition [9] | inhibition [10] | inhibition [11] | inhibition [12] | inhibition [14] | inhibition [16] | inhibition [17] | antibacterial activity (disk diffusion, qualitative) [18] | inhibition [19] | inhibition [20] | inhibition [21] | inhibition [22] | inhibition [23] | inhibition [24] | inhibition [25] | inhibition [26] | inhibition [27] | inhibition [28] | inhibition [29] | inhibition [30] | inhibition [31] | inhibition [32] | inhibition [33] | inhibition [34] | inhibition [35] | inhibition [36] | inhibition [37] | inhibition [38] | inhibition [39] | inhibition [40] | inhibition [41]
